Measured values as given in the NIST ThermoML archive (doi:10.1016/j.jct.2013.03.013).
Numbers after ± are expanded uncertainties.

Conditions: Liquid, Vibrating wire viscometry

Cc1ccccc1 [toluene]
viscosity [mPa·s]
Conditions	273.13 K	298.15 K	323.16 K	343.16 K	363.16 K
1000 kPa	0.7735 ± 0.017	0.5573 ± 0.013	0.4222 ± 0.0099	0.3495 ± 0.0085	0.2941 ± 0.0075
5000 kPa	0.7996 ± 0.017	0.5744 ± 0.013	0.4359 ± 0.01	0.3611 ± 0.0087	0.3047 ± 0.0077
10000 kPa	0.832 ± 0.018	0.5969 ± 0.013	0.4531 ± 0.01	0.3757 ± 0.009	0.3173 ± 0.0079
20000 kPa	0.8994 ± 0.019	0.6394 ± 0.014	0.4894 ± 0.011	0.4054 ± 0.0096	0.3436 ± 0.0084
30000 kPa	0.969 ± 0.021	0.6892 ± 0.015	0.5242 ± 0.012	0.4367 ± 0.01	0.3694 ± 0.0089
